Reference: PubChem BioAssay AID256 (DTP/NCI, 2004)
Where “and” joins values, the source holds several entries; their conditions need not be identical. Equal values may be shown once. Toxic doses and inconclusive results are not listed.

Test system: CD2F1 mice, L1210 leukemia ip, survival T/C
Assay: NCI In Vivo Anticancer Drug Screen. Data for tumor model L1210 Leukemia (intraperitoneal) in CD2F1 (CDF1) mice
Conditions: higher = longer survival
Summary of the method: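 Each value reflects a quotient of treated over vehicle control outcomes in mice with a transplanted tumor.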

[1] = endpoint: mean survival time, dose: 50.0 mg/kg/injection, schedule: Q01DX001 (ip), vehicle: saline with Tween-80
[2] = endpoint: mean survival time, dose: 100.0 mg/kg/injection, schedule: Q01DX001 (ip), vehicle: saline with Tween-80
[3] = endpoint: mean survival time, dose: 100.0 mg/kg/injection, schedule: Q04DX002 (ip), vehicle: saline with Tween-80
[4] = endpoint: mean survival time, dose: 25.0 mg/kg/injection, schedule: Q04DX003 (ip), vehicle: saline with Tween-80
[5] = endpoint: mean survival time, dose: 100.0 mg/kg/injection, schedule: Q04DX003 (ip), vehicle: saline with Tween-80
[6] = endpoint: mean survival time, dose: 12.5 mg/kg/injection, schedule: Q04DX003 (ip), vehicle: saline with Tween-80
[7] = endpoint: mean survival time, dose: 100.0 mg/kg/injection, schedule: Q04DX003 (ip), vehicle: saline
[8] = endpoint: mean survival time, dose: 200.0 mg/kg/injection, schedule: Q04DX003 (ip), vehicle: saline
[9] = endpoint: mean survival time, dose: 200.0 mg/kg/injection, schedule: Q01DX001 (ip), vehicle: saline with Tween-80
[10] = endpoint: mean survival time, dose: 400.0 mg/kg/injection, schedule: Q01DX001 (ip), vehicle: saline with Tween-80
[11] = endpoint: mean survival time, dose: 50.0 mg/kg/injection, schedule: Q01DX009 (ip), vehicle: saline with Tween-80
[12] = endpoint: mean survival time, dose: 400.0 mg/kg/injection, schedule: Q04DX003 (ip), vehicle: saline with Tween-80
[13] = endpoint: mean survival time, dose: 100.0 mg/kg/injection, schedule: Q01DX009 (ip), vehicle: saline with Tween-80
[14] = endpoint: mean survival time, dose: 200.0 mg/kg/injection, schedule: Q01DX009 (ip), vehicle: saline with Tween-80
[15] = endpoint: mean survival time, dose: 400.0 mg/kg/injection, schedule: Q01DX009 (ip), vehicle: saline with Tween-80
[16] = endpoint: mean survival time, dose: 200.0 mg/kg/injection, schedule: Q04DX003 (ip), vehicle: saline with Tween-80

SMILES: CSC(=O)C(=O)SC
- T/C [1]: 100 % of control
- T/C [2]: 108 % of control

SMILES: COc1ccc2cc1Oc1ccc(cc1)C[C@@H]1c3cc(c(OC)cc3CCN1C)Oc1c(OC)c(OC)cc3c1[C@H](C2)N(C)CC3
- T/C (endpoint: mean survival time, dose: 50.0 mg/kg/injection, schedule: Q04DX002 (ip), vehicle: saline with Tween-80): 94 % of control
- T/C [3]: 94 % of control
- T/C (endpoint: mean survival time, dose: 200.0 mg/kg/injection, schedule: Q04DX002 (ip), vehicle: saline with Tween-80): 94 % of control
- T/C (endpoint: mean survival time, dose: 400.0 mg/kg/injection, schedule: Q04DX002 (ip), vehicle: saline with Tween-80): 90 % of control

SMILES: O=S(=O)(F)c1ccc(O)cc1
- T/C (endpoint: mean survival time, dose: 25.0 mg/kg/injection, schedule: Q01DX009 (ip), vehicle: saline + alcohol): 93 % of control
- T/C [4]: 93 % of control
- T/C [1]: 96 % of control
- T/C (endpoint: mean survival time, dose: 50.0 mg/kg/injection, schedule: Q01DX009 (ip), vehicle: saline + alcohol): 95 % of control and 100 % of control
- T/C (endpoint: mean survival time, dose: 50.0 mg/kg/injection, schedule: Q04DX003 (ip), vehicle: saline with Tween-80): 93 % of control
- T/C [2]: 95 % of control
- T/C (endpoint: mean survival time, dose: 100.0 mg/kg/injection, schedule: Q01DX009 (ip), vehicle: saline + alcohol): 93 % of control and 95 % of control
- T/C [3]: 103 % of control and 107 % of control
- T/C [5]: 101 % of control

SMILES: [Cl][Pt+2][Cl].[NH-]CC1CCCCC1[NH-] (centres undefined)
- T/C (endpoint: mean survival time, dose: 3.12 mg/kg/injection, schedule: Q04DX003 (ip), vehicle: saline with Tween-80): 222 % of control
- T/C (endpoint: mean survival time, dose: 6.25 mg/kg/injection, schedule: Q04DX003 (ip), vehicle: saline with Tween-80): 319 % of control and 175 % of control
- T/C [6]: 348 % of control and 270 % of control
- T/C [4]: 309 % of control

SMILES: Cc1cc(N)ccc1N(c1c(Cl)c(Cl)c(NS(=O)(=O)c2ccccc2)c(Cl)c1Cl)S(=O)(=O)c1ccccc1
- T/C (endpoint: mean survival time, dose: 100.0 mg/kg/injection, schedule: Q04DX003 (ip), vehicle: Klucel (hydroxypropylcellulose) (HPC)): 95 % of control
- T/C (endpoint: mean survival time, dose: 200.0 mg/kg/injection, schedule: Q04DX003 (ip), vehicle: Klucel (hydroxypropylcellulose) (HPC)): 95 % of control
- T/C (endpoint: mean survival time, dose: 400.0 mg/kg/injection, schedule: Q04DX003 (ip), vehicle: Klucel (hydroxypropylcellulose) (HPC)): 95 % of control

SMILES: OCCN1CCOCC1
- T/C (endpoint: mean survival time, dose: 100.0 mg/kg/injection, schedule: Q01DX009 (ip), vehicle: saline): 103 % of control
- T/C [7]: 98 % of control
- T/C (endpoint: mean survival time, dose: 200.0 mg/kg/injection, schedule: Q01DX009 (ip), vehicle: saline): 102 % of control
- T/C [8]: 95 % of control
- T/C (endpoint: mean survival time, dose: 400.0 mg/kg/injection, schedule: Q01DX009 (ip), vehicle: saline): 103 % of control
- T/C (endpoint: mean survival time, dose: 400.0 mg/kg/injection, schedule: Q04DX003 (ip), vehicle: saline): 97 % of control

SMILES: OCCNCc1ccc(OCc2ccccc2)c(OCc2ccccc2)c1
- T/C (endpoint: median survival time, dose: 50.0 mg/kg/injection, schedule: Q04DX003 (ip), vehicle: saline with Tween-80): 90 % of control
- T/C (endpoint: median survival time, dose: 100.0 mg/kg/injection, schedule: Q04DX003 (ip), vehicle: saline with Tween-80): 90 % of control

SMILES: COC1OCC(O)C(NC(=O)N(C)N=O)C1O (centres undefined)
- T/C (endpoint: mean survival time, dose: 50.0 mg/kg/injection, schedule: Q01DX009 (ip), vehicle: saline): 160 % of control
- T/C (endpoint: mean survival time, dose: 75.0 mg/kg/injection, schedule: Q01DX009 (ip), vehicle: saline): 186 % of control

SMILES: O=C(COc1cccc(Cl)c1)Nc1cccc(NC(=O)c2ccc(S(=O)(=O)F)cc2)c1
- T/C [2]: 91 % of control
- T/C [9]: 90 % of control
- T/C [10]: 101 % of control

SMILES: Cc1cn(C2CC3OP(N(C)C)OCC3O2)c(=O)[nH]c1=O (centres undefined)
- T/C (endpoint: mean survival time, dose: 12.5 mg/kg/injection, schedule: Q01DX005 (ip), vehicle: water): 100 % of control
- T/C (endpoint: mean survival time, dose: 25.0 mg/kg/injection, schedule: Q01DX005 (ip), vehicle: water): 101 % of control
- T/C (endpoint: mean survival time, dose: 50.0 mg/kg/injection, schedule: Q01DX005 (ip), vehicle: water): 98 % of control
- T/C (endpoint: mean survival time, dose: 100.0 mg/kg/injection, schedule: Q01DX005 (ip), vehicle: water): 105 % of control
- T/C (endpoint: mean survival time, dose: 200.0 mg/kg/injection, schedule: Q01DX005 (ip), vehicle: water): 101 % of control

SMILES: Fc1c(F)c(F)[c]([Sn]([c]2ccccc2)([c]2ccccc2)[c]2ccccc2)c(F)c1F
- T/C [6]: 88 % of control
- T/C [4]: 88 % of control

SMILES: O=c1ncccn1[C@@H]1O[C@H](CO)[C@H](O)C1O (some centres undefined)
- T/C (endpoint: median survival time, dose: 25.0 mg/kg/injection, schedule: Q01DX009 (ip), vehicle: saline): 114 % of control and 109 % of control
- T/C (endpoint: median survival time, dose: 75.0 mg/kg/injection, schedule: Q04DX003 (ip), vehicle: saline): 102 % of control
- T/C (endpoint: median survival time, dose: 100.0 mg/kg/injection, schedule: Q01DX009 (oral), vehicle: saline): 102 % of control
- T/C (endpoint: median survival time, dose: 125.0 mg/kg/injection, schedule: Q01DX001 (oral), vehicle: saline): 101 % of control
- T/C (endpoint: median survival time, dose: 150.0 mg/kg/injection, schedule: Q04DX003 (ip), vehicle: saline): 106 % of control
- T/C (endpoint: median survival time, dose: 200.0 mg/kg/injection, schedule: Q01DX009 (oral), vehicle: saline): 110 % of control
- T/C (endpoint: median survival time, dose: 250.0 mg/kg/injection, schedule: Q01DX001 (oral), vehicle: saline): 102 % of control
- T/C (endpoint: median survival time, dose: 300.0 mg/kg/injection, schedule: Q04DX003 (ip), vehicle: saline): 111 % of control
- T/C (endpoint: median survival time, dose: 500.0 mg/kg/injection, schedule: Q01DX001 (oral), vehicle: saline): 105 % of control
- T/C (endpoint: median survival time, dose: 600.0 mg/kg/injection, schedule: Q04DX003 (ip), vehicle: saline): 114 % of control
- T/C (endpoint: median survival time, dose: 800.0 mg/kg/injection, schedule: Q01DX009 (oral), vehicle: saline): 177 % of control
- T/C (endpoint: median survival time, dose: 1000.0 mg/kg/injection, schedule: Q01DX001 (oral), vehicle: saline): 107 % of control
- T/C (endpoint: median survival time, dose: 1200.0 mg/kg/injection, schedule: Q04DX003 (ip), vehicle: saline): 113 % of control
- T/C (endpoint: median survival time, dose: 1600.0 mg/kg/injection, schedule: Q01DX009 (oral), vehicle: saline): 212 % of control
- T/C (endpoint: median survival time, dose: 2000.0 mg/kg/injection, schedule: Q01DX001 (oral), vehicle: saline): 115 % of control

SMILES: CN(C)N=Nc1ccc(S(=O)(=O)Nc2ncccn2)cc1
- T/C (endpoint: mean survival time, dose: 25.0 mg/kg/injection, schedule: Q01DX009 (ip), vehicle: saline with Tween-80): 120 % of control
- T/C [11]: 124 % of control
- T/C [5]: 113 % of control
- T/C [12]: 157 % of control

SMILES: CC(CN(C)C)c1ccccn1 (centres undefined)
- T/C (endpoint: mean survival time, dose: 75.0 mg/kg/injection, schedule: Q01DX001 (ip), vehicle: other): 106 % of control
- T/C (endpoint: mean survival time, dose: 150.0 mg/kg/injection, schedule: Q01DX001 (ip), vehicle: other): 106 % of control
- T/C (endpoint: mean survival time, dose: 300.0 mg/kg/injection, schedule: Q01DX001 (ip), vehicle: other): 106 % of control

SMILES: CCCC(=O)Nc1ccn(C2OC(CO)C(O)C2O)c(=O)n1 (centres undefined)
- T/C [11]: 98 % of control
- T/C (endpoint: mean survival time, dose: 50.0 mg/kg/injection, schedule: Q04DX002 (ip), vehicle: saline): 100 % of control
- T/C [13]: 102 % of control
- T/C (endpoint: mean survival time, dose: 100.0 mg/kg/injection, schedule: Q04DX002 (ip), vehicle: saline): 97 % of control
- T/C [14]: 102 % of control
- T/C (endpoint: mean survival time, dose: 200.0 mg/kg/injection, schedule: Q04DX002 (ip), vehicle: saline): 97 % of control
- T/C [15]: 104 % of control
- T/C (endpoint: mean survival time, dose: 400.0 mg/kg/injection, schedule: Q04DX002 (ip), vehicle: saline): 97 % of control
- T/C (endpoint: mean survival time, dose: 600.0 mg/kg/injection, schedule: Q04DX002 (ip), vehicle: saline): 97 % of control

SMILES: O=C1OC(=O)C2C3C=CC(C12)C1C2C(=O)OC(=O)C2C31 (centres undefined)
- T/C [5]: 91 % of control and 101 % of control
- T/C [16]: 94 % of control and 97 % of control
- T/C [12]: 123 % of control and 94 % of control
- T/C (endpoint: mean survival time, dose: 600.0 mg/kg/injection, schedule: Q04DX003 (ip), vehicle: saline with Tween-80): 110 % of control

SMILES: OC(CCCCl)CC(O)(C(F)(F)F)C(F)(F)F (centres undefined)
- T/C [13]: 102 % of control
- T/C [5]: 108 % of control
- T/C [14]: 94 % of control
- T/C [16]: 89 % of control
- T/C [15]: 86 % of control
- T/C [12]: 94 % of control

SMILES: O=[N+]([O-])c1ccc(/C=N\N=C\c2ccco2)cc1
- T/C [5]: 88 % of control
- T/C [14]: 86 % of control
- T/C [16]: 111 % of control
- T/C [12]: 102 % of control

SMILES: C(/C=C\c1ccccc1)=C(/C=C/c1ccccc1)/C=C/c1ccccc1
- T/C [9]: 89 % of control
- T/C [10]: 89 % of control

SMILES: Cc1cc2ncn(CC(=O)O)c2cc1C
- T/C [13]: 98 % of control
- T/C [14]: 93 % of control

SMILES: [Cl][Pt+2][Cl].[NH-]C(C(=O)O)C([NH-])C(=O)O (centres undefined)
- T/C (endpoint: mean survival time, dose: 50.0 mg/kg/injection, schedule: Q04DX003 (ip), vehicle: saline): 100 % of control
- T/C [7]: 106 % of control
- T/C [8]: 104 % of control
